Test results as given in US20010021705A1, “Disodium alendronate formulations” (MERCK & CO., Inc., priority 1995, published 2001).
Where a name gives a salt, the structure may show the parent alone. Read-outs that look alike come from different tables or passages of the source.

Conditions: for aqueous pH: concentration not stated (summary)

Compound	solution pH (at 50 mg/ml)	aqueous pH (Disodium Salt Monohydrate)	solution pH (at 8 mg/ml)	aqueous pH
NCCCC(O)(P(=O)(O)O)P(=O)(O)O [disodium salt, 4-Amino-1-Hydroxy-Butylidene-1,1-Bisphosphonic Acid Disodium Salt Monohydrate]	8.7	about 8.7		
NCCCC(O)(P(=O)(O)O)P(=O)(O)O [free acid, 4-amino-1-hydroxybutylidene-1,1-bisphosphonic acid]			2.2	about 2.2
